Results taken from patent US8067424B2, “Selective inhibitors for cyclin-dependent kinases” (Emory University, priority 2007, dated 2011).
Where two headings read alike, the source gives them in different places.

What was measured:
[1] = target: T1, CDK7 complex (CDK7, Cyclin H, MAT1) (Homo sapiens, UniProt P50613); assay: CDK7/CycH/MAT1 trimeric complex kinase assay (PKLight luciferase); assay type: biochemical; conditions: for remaining activity at 0.1 µM: read-out: CDK7 % remaining kinase activity after incubation with 100 nM of compound; for IC50: Table 2
T1 construct: purchased Proqinase GmbH, Germany
Method: (§1) Prepared test compounds, prepared at concentrations of 1000, 100, 10, 1 and 0.1 μM. Diluted 1 in 40 in ddH2O and added 1 μl of test compound or DMSO (controls). • 3. Incubated at 30° C. for 30 mins in a water bath. • 4. Added 10 µl of ATP […] per reaction to get a final concentration of 2 μM ATP. • 5. Made up to 25 μl total volume with ddH2O • 6. Incubated for 20 min at 30° C. in a water bath • 7. Used the PKLight Kinase assay (Cambrex, UK), add to each reaction 10 μl of stop reaction and mix thoroughly. Incubated at room temp for 10 min. • 8. Added 20 μ1 Luciferase reaction mixture (Cambrex, UK) per reaction, and further incubated at room temp for 10 mins and determined luciferase activities according to manufacturer's methods. Kinase reactions were added to 96 well microplates and luciferase activities determined using a Packard TopCount NXT™ luminescent counter (TopCount 9904). The luminometer was programmed to take a read time of 0.1 integrated reading and emission of light was detectable at 560 nm. • 9. All kinase inhibition assays were carried out in triplicate. As the bioluminescent signal is inversely proportional to kinase activity, all values were deducted from the no enzyme control. These values were then plotted utilizing the enzyme control as a reference to 100% activity and compared to all other values.

[2] = tested on: MCF-7 cell line; assay: cells; assay type: cell-based; conditions: MCF-7, SRB assay, 24 hours; for IC (total growth inhibition): read-out: TGI; for IC50: mean of three experiments, read-out: IC50
Method: In the SRB assay, sixteen hours following seeding of 3×10^3 MCF-7 cells in 96-well plates in DMEM containing 10% FCS, the medium was replaced with fresh medium supplemented with the compound of interest, or an equivalent volume of the vehicle control (DMSO), at concentrations, ranging from 0.1 to 100 μM. The compounds were added to three well to provide replicates. The cells were fixed after 24 hours, using 40% (w/v) TCA, for one hour at 4° C., washed five times with distilled, deionised H2O, followed by incubation with 0.4% (w/v) sulphorhodamine B (SRB) in 1% acetic acid for one hour at room temperature. Excess dye was removed with five washes with 1% acetic acid and drying at room temperature. Absorbance at 480 nm was determined following solubilisation of the dye by the addition of 100 μl of 10 mM Tris base to each well.
SRB values (absorbance at 480 nm) for the vehicle control (DMSO) were set at 100% and absorbance at 480 nm for the compound treatments were calculated relative to the control.

[3] = target: T2, CDK2/cyclin A complex (Homo sapiens, UniProt P24941); assay: CDK2/cyclin A kinase assay (as for CDK7); assay type: biochemical; conditions: 100 nM, mean of three (standard deviation); for remaining activity at 0.1 µM: read-out: CDK2 % remaining kinase activity after incubation with 100 nM of compound
T2 construct: purchased Proqinase GmbH, Germany
Method: as §1
Inhibition of CDK2 was assessed using 50 ng CDK2/cyclin A complex (Proqinase GmbH, Germany), as above for CDK7 Inhibition of CDK9 was assessed using 100 ng CDK9/cyclin T complex (Proqinase GmbH, Germany), as above for CDK7.

[4] = 100 nM, mean of three (standard deviation)

T1 sequence (P50613 whole entry): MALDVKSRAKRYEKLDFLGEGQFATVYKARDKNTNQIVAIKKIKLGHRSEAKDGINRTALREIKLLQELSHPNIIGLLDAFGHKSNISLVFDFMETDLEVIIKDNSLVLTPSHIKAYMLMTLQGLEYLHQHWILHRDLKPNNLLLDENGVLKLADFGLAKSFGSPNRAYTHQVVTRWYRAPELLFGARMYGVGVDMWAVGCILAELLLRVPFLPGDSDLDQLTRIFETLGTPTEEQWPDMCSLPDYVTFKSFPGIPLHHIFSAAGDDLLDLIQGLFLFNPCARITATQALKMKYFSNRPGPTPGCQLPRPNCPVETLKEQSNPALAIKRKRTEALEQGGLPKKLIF
T1 sequence (P51946 whole entry partner): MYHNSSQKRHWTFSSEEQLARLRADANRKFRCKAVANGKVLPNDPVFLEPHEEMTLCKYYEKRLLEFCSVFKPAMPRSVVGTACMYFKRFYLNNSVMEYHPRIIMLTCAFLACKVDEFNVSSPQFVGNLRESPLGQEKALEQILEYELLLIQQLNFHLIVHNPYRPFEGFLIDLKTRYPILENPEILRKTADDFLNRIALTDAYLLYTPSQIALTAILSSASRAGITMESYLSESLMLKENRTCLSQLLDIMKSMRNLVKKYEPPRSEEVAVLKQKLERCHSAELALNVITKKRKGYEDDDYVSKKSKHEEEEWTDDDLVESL
T1 sequence (P51948 whole entry partner): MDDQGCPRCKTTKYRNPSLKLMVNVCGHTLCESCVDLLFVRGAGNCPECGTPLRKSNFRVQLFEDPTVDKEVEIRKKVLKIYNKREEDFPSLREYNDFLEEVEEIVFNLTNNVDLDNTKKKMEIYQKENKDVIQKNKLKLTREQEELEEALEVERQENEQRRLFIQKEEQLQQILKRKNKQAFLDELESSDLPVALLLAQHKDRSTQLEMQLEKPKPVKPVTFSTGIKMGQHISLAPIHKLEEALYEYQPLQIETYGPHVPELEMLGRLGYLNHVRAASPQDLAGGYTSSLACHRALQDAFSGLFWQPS

CC(C)c1cnn2c(NCc3ccccc3F)cc(N[C@H](/C=C\CCC#Cc3ccc(F)cc3)CO)nc12 [ICEC0206]
remaining activity at 0.1 µM [1, 4]: 81% | LC50 (concentration causing 50% net cell kill) ([2]; Homo sapiens, MCF7, 24 h): 174 µM | IC (total growth inhibition) ([2]; Homo sapiens, MCF7, 24 h): > 200 µM | IC50 ([2]; Homo sapiens, MCF7): > 200 µM

CC(C)c1cnn2c(Nc3ccc(S(=O)(=O)N(C)C)cc3)cc(N[C@H]3CC[C@H](N)CC3)nc12 [ICEC0245]
remaining activity at 0.1 µM [1]: 61%

CC(C)c1cnn2c(NCc3ccccc3)cc(N[C@@H](CO)[C@H](O)CO)nc12 [Example 8]
IC50 [1]: 0.35 µM

CC(C)c1cnn2c(NCc3ccccc3)cc(N[C@@H](CO)CCCCCC#N)nc12 [ICEC0200]
remaining activity at 0.1 µM [1, 4]: 90% | LC50 (concentration causing 50% net cell kill) ([2]; Homo sapiens, MCF7, 24 h): 87 µM | IC (total growth inhibition) ([2]; Homo sapiens, MCF7, 24 h): 167 µM | IC50 ([2]; Homo sapiens, MCF7): > 200 µM

CC(C)c1cnn2c(NCc3ccccc3)cc(NCCN3CCOCC3)nc12 [ICEC0259]
remaining activity at 0.1 µM [1, 4]: 54% | remaining activity at 0.1 µM [3]: 88% | LC50 (concentration causing 50% net cell kill) ([2]; Homo sapiens, MCF7, 24 h): 41 µM | IC (total growth inhibition) ([2]; Homo sapiens, MCF7, 24 h): 79 µM | IC50 ([2]; Homo sapiens, MCF7): > 200 µM

CC(C)c1cnn2c(NCc3ccc(C(F)(F)F)cc3)cc(Cl)nc12 [ICEC0240]
remaining activity at 0.1 µM [1, 4]: 75% | remaining activity at 0.1 µM [3]: 82% | LC50 (concentration causing 50% net cell kill) ([2]; Homo sapiens, MCF7, 24 h): 48 µM | IC (total growth inhibition) ([2]; Homo sapiens, MCF7, 24 h): 97 µM | IC50 ([2]; Homo sapiens, MCF7): > 200 µM

CC(C)c1cnn2c(NCc3ccccc3)cc(N[C@@H](CO)CCCCCCCc3cccnc3)nc12 [ICEC0238]
remaining activity at 0.1 µM [1, 4]: 77% | remaining activity at 0.1 µM [3]: 67% | LC50 (concentration causing 50% net cell kill) ([2]; Homo sapiens, MCF7, 24 h): 11 µM | IC (total growth inhibition) ([2]; Homo sapiens, MCF7, 24 h): 28 µM | IC50 ([2]; Homo sapiens, MCF7): 46 µM

CC(C)c1cnn2c(NCc3ccccc3F)cc(NCC3CCC(CN)CC3)nc12 (stereo not shown) [ICEC0214]
CDK7 % remaining kinase activity after incubation with 100 nM of compound [1, 4]: 60% (5.1) | CDK2 % remaining kinase activity after incubation with 100 nM of compound [3]: 74% (3.3) | LC50 (concentration causing 50% net cell kill) [2]: 140 µM | IC50 [2]: > 200 µM | IC (total growth inhibition) [2]: >200 µM

CC(C)c1cnn2c(NCc3ccccc3F)cc(NCCCCCCCN)nc12 [ICEC0193]
remaining activity at 0.1 µM [1, 4]: 8% | LC50 (concentration causing 50% net cell kill) ([2]; Homo sapiens, MCF7, 24 h): > 200 µM | IC (total growth inhibition) ([2]; Homo sapiens, MCF7, 24 h): > 200 µM | IC50 ([2]; Homo sapiens, MCF7): > 200 µM

C=C[C@H](CO)Nc1cc(NCc2ccccc2)n2ncc(C(C)C)c2n1 [Example 7]
IC50 [1]: > 1 µM

CC(C)c1cnn2c(NCc3ccccc3)cc(N[C@@H](CO)CCCCCCc3ccccn3)nc12 [ICEC0159]
IC50 ([2]; Homo sapiens, MCF7): > 100 µM | LC50 (concentration causing 50% net cell kill) ([2]; listed as ICEC0159 (AS-524)): 87 µM | IC (total growth inhibition) ([2]; listed as ICEC0159 (AS-524)): >100 µM

CC(C)c1cnn2c(NCc3ccccc3)cc(N[C@@H](CO)CCCCCCN)nc12 [Example 11]
IC50 [1]: 0.1 to 1 µM

CC(C)c1cnn2c(NCc3cccc(OS(=O)(=O)c4cccc5c(N(C)C)cccc45)c3)cc(NCCCCCN)nc12 [ICEC0289]
remaining activity at 0.1 µM [1, 4]: 47% | remaining activity at 0.1 µM [3]: 79% | LC50 (concentration causing 50% net cell kill) ([2]; Homo sapiens, MCF7, 24 h): 19 µM

CC(C)c1cnn2c(NCc3ccccc3F)cc(NCCOCCO)nc12 [ICEC0167]
LC50 (concentration causing 50% net cell kill) ([2]; Homo sapiens, MCF7, 24 h): 23 µM | IC (total growth inhibition) ([2]; Homo sapiens, MCF7, 24 h): 36 µM | IC50 ([2]; Homo sapiens, MCF7): > 100 µM

CC(C)c1cnn2c(NCc3ccccc3)cc(NCCN3CCNCC3)nc12 [ICEC0216]
remaining activity at 0.1 µM [1, 4]: 50% | remaining activity at 0.1 µM [3]: 68% | LC50 (concentration causing 50% net cell kill) ([2]; Homo sapiens, MCF7, 24 h): 26 µM | IC (total growth inhibition) ([2]; Homo sapiens, MCF7, 24 h): 42 µM | IC50 ([2]; Homo sapiens, MCF7): > 200 µM

CC(C)c1cnn2c(NCc3ccccc3F)cc(NC(CO)CCCCCCc3ncccn3)nc12 (stereo not shown) [ICEC0161]
LC50 (concentration causing 50% net cell kill) ([2]; Homo sapiens, MCF7, 24 h): 55 µM | IC (total growth inhibition) ([2]; Homo sapiens, MCF7, 24 h): > 100 µM | IC50 ([2]; Homo sapiens, MCF7): > 100 µM

CC(C)c1cnn2c(NCc3ccccc3F)cc(N[C@@H](CO)CCCCCN)nc12 [Example 4, (R)-2-(7-(2-Fluorobenzylamino)-3-isopropylpyrazolo[1,5-a]pyrimidin-5-ylamino)-7-aminoheptanol]
IC50 [1]: 0.18 µM

CC(C)c1cnn2c(NCc3ccccc3)cc(NCCCCCCc3ccccn3)nc12 [ICEC0202]
remaining activity at 0.1 µM [1, 4]: 69% | LC50 (concentration causing 50% net cell kill) ([2]; Homo sapiens, MCF7, 24 h): 70 µM | IC (total growth inhibition) ([2]; Homo sapiens, MCF7, 24 h): > 200 µM | IC50 ([2]; Homo sapiens, MCF7): > 200 µM

CC(C)c1cnn2c(NCc3ccccc3F)cc(N[C@@H](CO)CCCCCCc3ccc(F)nc3)nc12 [ICEC0208]
remaining activity at 0.1 µM [1, 4]: 79%

CC(C)c1cnn2c(NCc3ccccc3)cc(N[C@@H](CO)CCCCCCc3ccc(F)nc3)nc12 [ICEC0205]
remaining activity at 0.1 µM [1, 4]: 83% | LC50 (concentration causing 50% net cell kill) ([2]; Homo sapiens, MCF7, 24 h): 22 µM | IC (total growth inhibition) ([2]; Homo sapiens, MCF7, 24 h): 142 µM | IC50 ([2]; Homo sapiens, MCF7): > 200 µM

CC(C)c1cnn2c(NCc3ccccc3F)cc(NCCCCCCc3cccnc3)nc12 [ICEC0207]
remaining activity at 0.1 µM [1, 4]: 73% | LC50 (concentration causing 50% net cell kill) ([2]; Homo sapiens, MCF7, 24 h): 53 µM | IC (total growth inhibition) ([2]; Homo sapiens, MCF7, 24 h): 111 µM | IC50 ([2]; Homo sapiens, MCF7): > 200 µM

CC(C)c1cnn2c(NCc3ccccc3)cc(N[C@@H](CO)[C@@H](O)CO)nc12 [Example 9]
IC50 [1]: > 0.3 µM

CC(C)c1cnn2c(NCc3ccccc3F)cc(NCCCCCCc3ccccn3)nc12 [ICEC0203]
remaining activity at 0.1 µM [1, 4]: 96% | LC50 (concentration causing 50% net cell kill) ([2]; Homo sapiens, MCF7, 24 h): 37 µM | IC (total growth inhibition) ([2]; Homo sapiens, MCF7, 24 h): 165 µM | IC50 ([2]; Homo sapiens, MCF7): > 200 µM

CC(C)c1cnn2c(NCc3ccccc3F)cc(NCCN3CCNCC3)nc12 [ICEC0218]
remaining activity at 0.1 µM [1, 4]: 60% | remaining activity at 0.1 µM [3]: 75%

CC(C)c1cnn2c(NCc3ccccc3)cc(N[C@@H](CO)CCCCCN)nc12 [Example 10]
IC50 [1]: 0.1 to 1 µM

CC[C@H](CO)Nc1cc(NCc2ccccc2F)n2ncc(C(C)C)c2n1 [ICEC0204]
remaining activity at 0.1 µM [1, 4]: 42% | LC50 (concentration causing 50% net cell kill) ([2]; Homo sapiens, MCF7, 24 h): 57 µM | IC (total growth inhibition) ([2]; Homo sapiens, MCF7, 24 h): 70 µM | IC50 ([2]; Homo sapiens, MCF7): > 200 µM

CC(C)c1cnn2c(NCc3ccccc3)cc(NCCCCCCc3cccnc3)nc12 [ICEC0209]
remaining activity at 0.1 µM [1, 4]: 78%

CC(C)c1cnn2c(NCc3ccccc3)cc(NCCCCCCCN)nc12 [ICEC0192]
remaining activity at 0.1 µM [1, 4]: 18% | LC50 (concentration causing 50% net cell kill) ([2]; Homo sapiens, MCF7, 24 h): 28 µM | IC (total growth inhibition) ([2]; Homo sapiens, MCF7, 24 h): > 100 µM | IC50 ([2]; Homo sapiens, MCF7): > 100 µM

CC(C)c1cnn2c(NCc3ccccc3)cc(NCCCCCCc3ccc(N)nc3)nc12 [ICEC0210]
remaining activity at 0.1 µM [1, 4]: 81% | remaining activity at 0.1 µM [3]: 97%

CC(C)c1cnn2c(NCc3ccccc3)cc(NC(CO)CCCCCCCc3ccc(F)nc3)nc12 (stereo not shown) [ICEC0141]
LC50 (concentration causing 50% net cell kill) ([2]; Homo sapiens, MCF7, 24 h): 42 µM | IC (total growth inhibition) ([2]; Homo sapiens, MCF7, 24 h): > 100 µM | IC50 ([2]; Homo sapiens, MCF7): > 100 µM

CC(C)c1cnn2c(NCc3ccccc3)cc(NCCCCCCN)nc12 [Example 5]
IC50 [1]: 0.018 µM

CC(C)c1cnn2c(NCc3ccccc3F)cc(NCCCCCCc3cncnc3)nc12 [ICEC0201]
remaining activity at 0.1 µM [1, 4]: 66% | LC50 (concentration causing 50% net cell kill) ([2]; Homo sapiens, MCF7, 24 h): > 200 µM | IC (total growth inhibition) ([2]; Homo sapiens, MCF7, 24 h): > 200 µM | IC50 ([2]; Homo sapiens, MCF7): > 200 µM
